As a reminder, the inhibition is the relative decrease from the control value, in per cent.

We go through four compounds from paper PMC10794144, “A novel antibiotic class targeting the lipopolysaccharide transporter” (Nature, 2024).

Holding throughout (assay): Off-target screening (CEREP)
Holding throughout (format): binding
Common to all, as to settings: read-out: percent inhibition

The target of one assay is T1, 5HT3 (Homo sapiens, UniProt P46098).
T1 construct: purchased Eurofins CEREP SA
T1 sequence (P46098 24-478): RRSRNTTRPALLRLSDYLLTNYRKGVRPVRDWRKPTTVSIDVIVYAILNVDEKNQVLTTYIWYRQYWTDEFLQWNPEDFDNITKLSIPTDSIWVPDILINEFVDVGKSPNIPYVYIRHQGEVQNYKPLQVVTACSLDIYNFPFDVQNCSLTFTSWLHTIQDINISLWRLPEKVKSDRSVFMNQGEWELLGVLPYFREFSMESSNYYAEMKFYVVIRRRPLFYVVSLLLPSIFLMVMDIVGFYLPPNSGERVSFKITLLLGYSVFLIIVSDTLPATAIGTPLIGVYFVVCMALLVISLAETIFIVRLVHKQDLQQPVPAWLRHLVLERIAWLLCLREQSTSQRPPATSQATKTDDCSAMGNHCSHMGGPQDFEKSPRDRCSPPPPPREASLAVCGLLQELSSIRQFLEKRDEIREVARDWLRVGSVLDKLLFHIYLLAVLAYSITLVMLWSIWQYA
How it is done: (§1) Supplementary Table 1 │ Off-target activity screening f or MCP compou nds […]
(§2) The assays given in the table above were conducted at Eurofins CEREP S A (Celle-Lévescault, France) and were run as single point measurements in duplicates in the presence of 10 µ M of the test compound and reported as percent inhibition of the radioligand signal or control enzymatic activity. n.d., not

Another assay deals with T2, Alpha2A-adrenoreceptor (Homo sapiens, UniProt P08913).
T2 construct: purchased Eurofins CEREP SA
T2 sequence (P08913 1-465): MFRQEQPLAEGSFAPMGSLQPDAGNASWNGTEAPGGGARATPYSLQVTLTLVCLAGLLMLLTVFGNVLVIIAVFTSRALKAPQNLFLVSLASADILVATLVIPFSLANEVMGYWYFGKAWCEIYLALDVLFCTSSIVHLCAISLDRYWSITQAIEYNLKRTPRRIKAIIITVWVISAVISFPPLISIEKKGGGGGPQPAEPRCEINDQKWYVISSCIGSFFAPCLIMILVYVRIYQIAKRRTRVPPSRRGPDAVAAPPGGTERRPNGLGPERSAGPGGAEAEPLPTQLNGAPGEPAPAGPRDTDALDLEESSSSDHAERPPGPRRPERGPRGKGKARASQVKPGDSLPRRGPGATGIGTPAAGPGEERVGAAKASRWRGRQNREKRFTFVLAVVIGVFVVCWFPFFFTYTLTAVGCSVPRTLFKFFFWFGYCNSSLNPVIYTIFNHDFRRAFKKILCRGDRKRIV
The protocol:
as §1, §2

For assay [1], the target named is T3, Angiotensin II receptor 1 (Homo sapiens, UniProt P30556).
T3 construct: purchased Eurofins CEREP SA
T3 sequence (P30556 1-359): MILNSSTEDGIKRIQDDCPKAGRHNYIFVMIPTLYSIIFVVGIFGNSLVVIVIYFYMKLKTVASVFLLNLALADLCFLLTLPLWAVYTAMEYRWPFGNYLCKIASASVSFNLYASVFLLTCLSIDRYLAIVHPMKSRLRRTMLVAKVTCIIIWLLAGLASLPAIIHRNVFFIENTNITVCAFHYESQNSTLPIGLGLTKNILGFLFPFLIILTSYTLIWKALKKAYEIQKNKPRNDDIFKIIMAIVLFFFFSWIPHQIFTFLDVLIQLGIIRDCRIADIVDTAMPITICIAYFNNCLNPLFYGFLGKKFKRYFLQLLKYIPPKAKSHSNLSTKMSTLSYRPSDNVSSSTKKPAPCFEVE
How it is done: as §1, §2

Another assay deals with T4, Dopamine D1 receptor (Homo sapiens, UniProt P21728).
T4 construct: purchased Eurofins CEREP SA
How it is done: as §1, §2

The next assay concerns the target T5, Adenosine A1 respetor (Homo sapiens, UniProt P30542).
T5 construct: purchased Eurofins CEREP SA
T5 sequence (P30542 1-326): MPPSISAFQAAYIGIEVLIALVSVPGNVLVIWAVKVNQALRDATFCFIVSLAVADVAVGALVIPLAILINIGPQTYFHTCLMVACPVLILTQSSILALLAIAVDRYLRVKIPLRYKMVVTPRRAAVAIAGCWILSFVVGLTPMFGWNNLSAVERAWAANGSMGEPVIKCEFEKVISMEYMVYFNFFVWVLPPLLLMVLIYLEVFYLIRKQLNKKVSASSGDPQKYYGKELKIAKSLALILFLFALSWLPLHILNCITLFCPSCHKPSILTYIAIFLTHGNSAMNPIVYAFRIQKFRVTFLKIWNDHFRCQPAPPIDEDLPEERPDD
The protocol: as §1, §2

Another assay addresses T6, 5HT2B (Homo sapiens, UniProt P41595).
T6 construct: purchased Eurofins CEREP SA
The protocol: as §1, §2

The target in the next assay is T7, Glucocorticoid receptor (Homo sapiens, UniProt P04150).
T7 construct: purchased Eurofins CEREP SA
T7 sequence (P04150 1-777): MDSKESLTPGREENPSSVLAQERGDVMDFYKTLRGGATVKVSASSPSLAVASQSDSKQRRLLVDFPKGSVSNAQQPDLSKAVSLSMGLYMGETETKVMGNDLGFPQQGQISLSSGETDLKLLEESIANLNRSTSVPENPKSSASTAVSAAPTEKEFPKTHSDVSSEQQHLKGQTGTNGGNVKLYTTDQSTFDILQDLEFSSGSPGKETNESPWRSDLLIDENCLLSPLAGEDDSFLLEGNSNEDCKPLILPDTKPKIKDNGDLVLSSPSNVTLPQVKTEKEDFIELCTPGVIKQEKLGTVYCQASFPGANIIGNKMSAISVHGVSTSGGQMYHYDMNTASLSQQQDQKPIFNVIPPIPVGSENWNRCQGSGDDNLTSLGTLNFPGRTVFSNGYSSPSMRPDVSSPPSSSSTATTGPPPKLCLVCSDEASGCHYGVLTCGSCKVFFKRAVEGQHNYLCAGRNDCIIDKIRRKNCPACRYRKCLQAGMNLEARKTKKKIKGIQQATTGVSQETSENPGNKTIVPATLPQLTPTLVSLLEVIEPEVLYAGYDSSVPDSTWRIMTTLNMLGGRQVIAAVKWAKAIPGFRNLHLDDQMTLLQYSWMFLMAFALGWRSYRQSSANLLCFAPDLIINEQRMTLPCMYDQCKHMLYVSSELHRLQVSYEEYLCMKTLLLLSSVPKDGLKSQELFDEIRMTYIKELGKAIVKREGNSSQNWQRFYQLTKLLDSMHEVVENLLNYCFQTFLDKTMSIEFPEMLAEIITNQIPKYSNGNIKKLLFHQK
How it is done: as §1, §2

Like-named read-outs stand apart in the source and are kept apart here.

T4 sequence (P21728 whole entry): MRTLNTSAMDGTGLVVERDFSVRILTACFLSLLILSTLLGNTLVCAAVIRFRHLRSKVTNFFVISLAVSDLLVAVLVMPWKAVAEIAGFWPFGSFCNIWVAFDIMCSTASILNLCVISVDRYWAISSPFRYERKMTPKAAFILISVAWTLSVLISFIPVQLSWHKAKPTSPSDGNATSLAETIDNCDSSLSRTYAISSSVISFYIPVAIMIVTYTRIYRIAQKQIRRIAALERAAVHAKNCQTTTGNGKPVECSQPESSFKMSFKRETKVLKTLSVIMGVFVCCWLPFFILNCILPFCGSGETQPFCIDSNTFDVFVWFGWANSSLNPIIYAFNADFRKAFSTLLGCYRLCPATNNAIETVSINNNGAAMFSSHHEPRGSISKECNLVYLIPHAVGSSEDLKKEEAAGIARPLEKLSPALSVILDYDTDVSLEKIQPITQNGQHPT
T6 sequence (P41595 whole entry): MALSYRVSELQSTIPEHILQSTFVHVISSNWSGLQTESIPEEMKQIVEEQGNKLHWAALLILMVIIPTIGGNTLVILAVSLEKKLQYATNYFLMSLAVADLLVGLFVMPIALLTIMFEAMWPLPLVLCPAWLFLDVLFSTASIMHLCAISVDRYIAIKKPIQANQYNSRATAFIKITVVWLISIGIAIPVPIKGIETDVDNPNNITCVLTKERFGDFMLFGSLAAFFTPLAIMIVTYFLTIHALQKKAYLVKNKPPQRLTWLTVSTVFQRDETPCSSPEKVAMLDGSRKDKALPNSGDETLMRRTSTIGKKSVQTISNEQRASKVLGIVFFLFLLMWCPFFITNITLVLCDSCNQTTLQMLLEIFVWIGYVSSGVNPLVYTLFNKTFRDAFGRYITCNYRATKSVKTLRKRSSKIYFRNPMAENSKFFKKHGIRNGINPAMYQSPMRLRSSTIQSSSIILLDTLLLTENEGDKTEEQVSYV

For the compound `CN1C(=O)[C@H](CCCCN)NC(=O)[C@H](CCCN)NCc2cccnc2Sc2c(Cl)ccc(Cl)c2CNC(=O)[C@@H]1Cc1c[nH]c2ccccc12` [RO7075573], the inhibition at 10 µM on 5HT3 was 8%; at Alpha2A-adrenoreceptor, -5%; in assay [1], -7%; on Dopamine D1 receptor, 8%; at Adenosine A1 respetor, -10%; at 5HT2B it was 1%. In addition, the inhibition at 10 µM at Glucocorticoid receptor stood at 9%.
On to `CN1C(=O)[C@H](CCCN)NC(=O)[C@H](CCCN)NCc2ccccc2Sc2ccccc2CNC(=O)[C@@H]1Cc1c[nH]c2ccccc12` [RO7036668], for which the inhibition at 10 µM on 5HT3 (10 µM, duplicates) was 6%; on Alpha2A-adrenoreceptor (10 µM, duplicates), -2%; in assay [1] (10 µM, duplicates), 14%; at Dopamine D1 receptor (10 µM, duplicates), 27%; at Adenosine A1 respetor (10 µM, duplicates) it was 1%; on 5HT2B (10 µM, duplicates) it was 27%. In addition, the inhibition at 10 µM at Glucocorticoid receptor (10 µM, duplicates) came to 3%.
With `CN1C(=O)[C@H](CCCCN)NC(=O)[C@H](CCCN)NCc2cccnc2Sc2cccc(-c3ccc(C(=O)O)cc3)c2CNC(=O)[C@@H]1Cc1c[nH]c2ccccc12` [zosurabalpin], the inhibition at 10 µM on 5HT3 is 3%; on Alpha2A-adrenoreceptor, 4%; in assay [1], 6%; at Dopamine D1 receptor it was -3%; on Adenosine A1 respetor it was -7%; at 5HT2B it was -1%. In addition, the inhibition at 10 µM on Glucocorticoid receptor is -1%.
For the compound `CN1C(=O)[C@H](CCCCN)NC(=O)[C@H](CCCN)NCc2cccnc2Sc2c(Cl)ccc(-c3ccc(C(=O)O)cc3)c2CNC(=O)[C@@H]1Cc1c[nH]c2ccccc12` [RO7202110], the inhibition at 10 µM on 5HT3 (10 µM, duplicates) is 6%; at Alpha2A-adrenoreceptor (10 µM, duplicates), -2%; in assay [1] (10 µM, duplicates), 14%; at Dopamine D1 receptor (10 µM, duplicates) it was -7%; on Adenosine A1 respetor (10 µM, duplicates), 1%; at 5HT2B (10 µM, duplicates), 14%. Moreover, the inhibition at 10 µM at Glucocorticoid receptor (10 µM, duplicates) was determined as 9%.
